Reference: PubChem BioAssay AID179 (DTP/NCI, 2004)
Activity calls are given as the source filed them.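 How the source made its calls: active means compounds giving half or more protection of infected cells from virus-caused growth loss, again on retest; inactive means the rest.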

Tested on: CEM cells HIV-1 protection, formazan growth assay
Test: NCI AIDS Antiviral Assay
Conditions: for IC50: measured here: growth of uninfected CEM cells
Outline: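 Category rules: moderately active means at least 50% protection on retest, and confirmed active means 100% protection reproducibly. The underlying data came from a formazan growth assay in HIV-1-infected CEM cells.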

| Structure (SMILES) | EC50 [µM] | IC50 [µM] | outcome |
| --- | --- | --- | --- |
| COc1ccc(/C=c2\[nH]c3nc(=O)c(N4CCCCC4)c(N)n3c2=O)cc1 | > 200 | 120 |  |
| OC12c3ccccc3C3CCC4(OCCO4)C3C1c1ccccc12 (stereo not drawn) | > 200 | 141 |  |
| O=c1oc2ccccc2c(O)c1Oc1ccccc1 | > 200 | 195 |  |
| CN(C)c1ccc(/C=C(\NC(=O)c2ccccc2)c2nc3ccc4c(c3[nH]2)C(=O)c2ccccc2C4=O)cc1 |  |  | inactive |
| COc1ccc(/C=C(/C#N)c2ccc(Cl)cc2)cc1 | > 200 | 3.98 |  |
| Cc1c(O)nc(-n2[nH]c3c(c2=O)CCCC3)[nH]c1=O | > 200 | > 200 |  |
| CC1(C)COC(c2cccc(C(O)c3ccc(Cl)cc3)c2)=N1 (stereo not drawn) | > 200 | 38.9 |  |
| CCOC(=O)/C(C#N)=C/c1ccc2c(c1)CC1(C2)Cc2cc(CC)c(C(C)O)cc2C1 (stereo not drawn) | > 200 | 3.63 |  |
| Cc1c2ccc(Cl)cc2nc2ccc(OCCCCCCNC(=O)CCCN=C(N)N)cc12 | > 50.1 | 22.9 |  |
| CCCc1cc(=O)oc2c3c(cc(OC(C)C)c12)O[C@H](C)[C@H](C)C3=O | > 200 | 30.2 |  |
| O=C1CCC2(c3ccc(Cl)cc3)Nc3cc([N+](=O)[O-])ccc3N12 (stereo not drawn) | > 21.9 | > 21.9 |  |
| CO/C(=N\N=C\c1ccc(Cl)cc1)c1ccncc1 | > 200 | > 200 |  |
| CC(C)c1nsc(N)c1C(N)=O | > 200 | > 200 |  |
| Cc1nc(N(CCO)CCO)c2sc(=S)n(-c3ccccc3)c2n1 | > 10.5 | > 10.5 |  |
| CCOP(=O)(Nc1ccc(-c2ccccc2)cc1)OCC | > 200 | 52.5 |  |
| CC(=O)Nc1c(C#N)c2n(c1C(=O)Nc1ccccc1)CCC2 | > 200 | > 200 |  |
| CCC(C)C(NC(=O)C(CCCC(N)=O)NC(=O)CNC(=O)C(NC(=O)C(NC(=O)C(NC(=O)C(Cc1ccccc1)NC(=O)C(C)NC(=O)C(CCCNC(=N)N)NC(=O)CNC(=O)C1CCCN1C(=O)CNC(=O)C(CCCNC(=N)N)NC(=O)C(CCCC(N)=O)NC(=O)C(NC(=O)C(CCCNC(=N)N)NC(=O)C(NC(=O)C(COC1OC(CO)C(O)C(O)C1NC(C)=O)NC(=O)C(CCCCN)NC(=O)C(CCCNC(=N)N)NC(=O)C(NC(=O)C(CC(N)=O)NC(=O)C(N)CC(N)=O)C(C)O)C(C)CC)C(C)CC)C(C)C)C(C)O)C(C)CC)C(=O)NCC(N)=O (stereo not drawn) | > 50.1 | > 50.1 |  |
| CC1(C)OC(=O)[C@@](C)([C@H](O)c2ccccc2)O1 |  |  | inactive |
| Nn1c(CCCCCCCCc2nnc(COc3c(O)ccc4ccccc34)n2N)nnc1COc1c(O)ccc2ccccc12 | > 200 | 170 |  |
| CO[C@@H]1C2OC(C)(C)OC2O[C@@H]1C1OC[C@H]2O[C@@H](n3ccc(=O)[nH]c3=O)C(O)[C@H]2N1O (stereo partly drawn) | > 200 | 148 |  |

| Structure (SMILES) | EC50 [µM] | IC50 [µM] | outcome |
| --- | --- | --- | --- |
| COc1ccc(OC)c(NC(=O)C(=O)NNC(=O)c2sc(NNC(C)=O)nc2C)c1 |  |  | inactive |
| Cc1cc2c(cc1C)[n+](=O)c(N1CCN(c3ccc([N+](=O)[O-])cc3)CC1)c(C#N)n2[O-] | > 50.1 | > 50.1 |  |
| O=C(NCCCNCCCCNCCCNC(=O)c1cc(-c2ccccc2)nc2ccccc12)c1cc(-c2ccccc2)nc2ccccc12 | > 20 | 3.8 |  |
| Cc1sc(/N=C/C2=C(O)CC(C)(C)CC2=O)nc1-c1ccccc1 | > 200 | 64.6 |  |
| Cc1nnc(NS(=O)(=O)c2ccc(N=NC3SC(=S)NC3=O)cc2)s1 (stereo not drawn) | > 200 | > 200 |  |
| CNC(=O)N(CCC#N)CCN(C(=O)N(C)C)c1ccccc1 | > 200 | > 200 |  |
| O=c1c2c(oc3ccccc13)-c1ccccc1OC2 | > 200 | > 200 |  |
| O=c1[nH]nc(Cc2ccc([N+](=O)[O-])cc2)[nH]1 | > 200 | > 200 |  |
| CC(=O)Nc1ccc2c(c1)Cc1cc(N(CCO)CCO)ccc1-2 | > 200 | 74.1 |  |
| c1ccc2c(c1)cc(C1NCCc3[nH]cnc31)c1ccccc12 (stereo not drawn) | > 24 | 15.1 |  |
| C=C[C@@]1(C)CC2(C=C(CO)C(O)O2)Oc2c1c(=O)oc1cccc(C)c21 (stereo partly drawn) | > 200 | 3.02 |  |
| O=C1CCCC2C3CC(CN12)C1CC(O)CCN1C3 (stereo not drawn) | > 200 | > 200 |  |
| ON1CCc2c([nH]c3ccccc23)C1c1ccccc1Br (stereo not drawn) |  |  | inactive |
| COC1/C=C/OC2(C)Oc3c(C)c(OC(C)=O)c4c(c3C2=O)C(=O)C=C(NC(=O)/C(C)=C\C=C\C(C)C(OC(C)=O)C(C)C(O)C(C)C(OC(C)=O)C1C)C4=O (stereo not drawn) | > 200 | 3.02 |  |
| S=C1Cc2c(-c3ccc(Br)cc3)cc(-c3ccccc3)nc2-c2ccccc2N1 | > 151 | 6.17 |  |
| c1ccc([P+](CC[P+](c2ccccc2)(c2ccccc2)c2ccccc2)(c2ccccc2)c2ccccc2)cc1 | > 200 | 6.17 |  |
| Cc1ncc(CO)c(CO)c1OCC(O)CN1CCN(c2ccc(F)cc2)CC1 (stereo not drawn) | > 200 | 97.7 |  |
| CC1CCC2(OCCO2)[C@]2(C)CC(O)C(=O)C=C12 (stereo partly drawn) |  |  | inactive |
| COc1ccc(NC/C=C/C(=C/COC(C)=O)OC(C)=O)cc1 | > 200 | 3.16 |  |
